Test results taken from US7582611B2, “Motilide compounds” (Pfizer Inc., priority 2005, dated 2009).
Values after ≈ are worked out from the molar mass of the structure shown.

Assays:
Motilin Receptor = biological target: T1, Motilin Receptor (Oryctolagus cuniculus, UniProt G1T803); test: Tissue based assay for motilin agonist potency (rabbit duodenum contractility); assay type: cell-based; settings: rabbit duodenum strips, contraction normalized to 1 μM carbachol; read-out: Motilin Receptor Agonist Activity (EC50)
T1 construct: strips of longitudinal smooth muscle were sliced from the segments; from tissue; host or cells: rabbit duodenum longitudinal smooth muscle strips
Method: The motilin agonist potencies of compounds of this invention were evaluated using a tissue based assay, using rabbit duodenum tissue-based contractility assay, generally following the procedure of Depoortere et al., J. Gastrointestinal Motility, 1, 150-159 (1989), the disclosure of which is incorporated herein by reference. Briefly, this method measures the ability of a compound to induce contractions in rabbit duodenal tissue, a motilin receptor-bearing tissue contractilely responsive to motilin.
Strips of rabbit duodenum were tested and qualified for use in the assay by as follows. Segments of rabbit duodenum, 20-30 cm distal to the pylorus were split longitudinally. The mucosa was removed and 2×2×15 mm strips of longitudinal smooth muscle were sliced from the segments. The strips were bathed in oxygenated Krebs solution at 37° C., with 1.5 g of tension, and contractions measured auxotonically.
The carbachol was then washed away by changing the organ bath buffer twice. The strips were washed again 20±5 minutes following the carbachol contraction. Following this last wash a dose response study was initiated within 10±5 min. Each compound tested was dissolved in dimethylsulfoxide (DMSO) to a final concentration of 10 mM. A series of seven 10× serial dilutions in water was prepared, so that the concentration of the seventh serial dilution was 1.0×10^−6 mM. The first through fifth serial dilutions of the compound were applied, starting with 200 μL of the most dilute solution. After each application, there was a wait of 2±0.5 min, until the response was stable, before the application of the next dose (the next higher concentration serial dilution). The dose was increased in 10-fold increments until a small response was observed. Subsequent doses were the increased in 2- to 5-fold increments, until the maximum response was obtained. At 2±0.5 min after the last drug addition, the strips were dosed with 1 μM carbachol.
The EC50 (concentration producing a half-maximal effect) was calculated as follows. The basal tension was subtracted from the compound-induced tension for each reading. The data points were normalized against the response obtained from 1 μM carbachol at the end of the experiment. The concentration of compound was plotted against the response and fitted to the following equation: R=(Rmax·C)/(EC50+C) where R is the contraction response, Rmax is the maximal contraction response, and C is the concentration of compound. Both R and Rmax are expressed as a fraction of the 1 μM carbachol contraction and range from 0 to 1.

[1] = tested on: Streptococcus pneumoniae ATCC 6301; test: Evaluation of antibacterial activity (MIC, serial dilutions on 96-well microtiter plates); assay type: cell-based; settings: ATCC6301, read-out: Antibacterial Activity (MIC, μg/mL)

T1 sequence (G1T803 1-400): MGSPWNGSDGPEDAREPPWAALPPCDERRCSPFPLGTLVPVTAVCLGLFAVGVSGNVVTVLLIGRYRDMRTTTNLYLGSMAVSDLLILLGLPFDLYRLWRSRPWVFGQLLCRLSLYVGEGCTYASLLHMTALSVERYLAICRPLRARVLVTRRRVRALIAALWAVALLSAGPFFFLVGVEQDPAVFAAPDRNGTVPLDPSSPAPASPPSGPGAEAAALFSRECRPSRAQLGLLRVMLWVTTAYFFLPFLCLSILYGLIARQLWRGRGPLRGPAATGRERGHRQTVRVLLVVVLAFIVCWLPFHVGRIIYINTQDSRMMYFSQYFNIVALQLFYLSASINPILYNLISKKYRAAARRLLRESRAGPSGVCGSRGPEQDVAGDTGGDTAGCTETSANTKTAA

SMILES	EC50 (Motilin Receptor) [nM]	MIC [1] [µg/mL]
CC[C@H]1OC(=O)[C@H](C)[C@@H](O[C@H]2C[C@@](C)(OC)[C@@H](O)[C@H](C)O2)[C@H](C)[C@@H](O[C@@H]2O[C@H](C)C[C@H](N(C)C3CCC3)[C@H]2O)[C@](C)(O)C[C@@H](C)[C@H](OCC(=O)OC)[C@H](C)[C@@H](O)[C@]1(C)O [Compound A-23]	560	> 128
CC[C@H]1OC(=O)[C@H](C)[C@@H](O[C@H]2C[C@@](C)(OC)[C@@H](O)[C@H](C)O2)[C@H](C)[C@@H](O[C@@H]2O[C@H](C)C[C@H](N(C)C(C)C)[C@H]2O)[C@](C)(O)C[C@@H](C)[C@H](OCCCCC(=O)NC)[C@H](C)[C@@H](O)[C@]1(C)O [Compound A-74]	270	128 (≈ 146 µM)
CCOC(=O)CO[C@@H]1[C@H](C)[C@@H](O)[C@](C)(O)[C@@H](CC)OC(=O)[C@H](C)[C@@H](O[C@H]2C[C@@](C)(OC)[C@@H](O)[C@H](C)O2)[C@H](C)[C@@H](O[C@@H]2O[C@H](C)C[C@H](N(C)C3CCC3)[C@H]2O)[C@](C)(O)C[C@H]1C [Compound A-10]	680	> 128
CC[C@H]1OC(=O)[C@H](C)[C@@H](O[C@H]2C[C@@](C)(OC)[C@@H](O)[C@H](C)O2)[C@H](C)[C@@H](O[C@@H]2O[C@H](C)C[C@H](N(C)C[C@H](C)O)[C@H]2O)[C@](C)(O)C[C@@H](C)[C@H](OCC(=O)N(C)C)[C@H](C)[C@@H](O)[C@]1(C)O [Compound A-16]	2900	> 128
CC[C@H]1OC(=O)[C@H](C)[C@@H](O[C@H]2C[C@@](C)(OC)[C@@H](O)[C@H](C)O2)[C@H](C)[C@@H](O[C@@H]2O[C@H](C)C[C@H](N(C)C(C)C)[C@H]2O)[C@](C)(O)C[C@@H](C)[C@H](NS(C)(=O)=O)[C@H](C)[C@@H](O)[C@]1(C)O [Compound A-35]	190	64 (≈ 76.1 µM)
CC[C@H]1OC(=O)[C@H](C)[C@@H](O[C@H]2C[C@@](C)(OC)[C@@H](O)[C@H](C)O2)[C@H](C)[C@@H](O[C@@H]2O[C@H](C)C[C@H](N(C)C[C@H](C)O)[C@H]2O)[C@](C)(O)C[C@@H](C)[C@H](OS(=O)(=O)N(C)C)[C@H](C)[C@@H](O)[C@]1(C)O [Compound A-20]	490	128 (≈ 144 µM)
CC[C@H]1OC(=O)[C@H](C)[C@@H](O[C@H]2C[C@@](C)(OC)[C@@H](O)[C@H](C)O2)[C@H](C)[C@@H](O[C@@H]2O[C@H](C)C[C@H](N(C)C(C)C)[C@H]2O)[C@](C)(O)C[C@@H](C)[C@H](NS(=O)(=O)C2CC2)[C@H](C)[C@@H](O)[C@]1(C)O [Compound A-41]	170	128 (≈ 148 µM)
CC[C@H]1OC(=O)[C@H](C)[C@@H](O[C@H]2C[C@@](C)(OC)[C@@H](O)[C@H](C)O2)[C@H](C)[C@@H](O[C@@H]2O[C@H](C)C[C@H](N(C)C(C)C)[C@H]2O)[C@](C)(O)C[C@@H](C)[C@H](OCC(=O)N(C)C)[C@H](C)[C@@H](O)[C@]1(C)O [Compound A-15]	660	64 (≈ 75.4 µM)
CC[C@H]1OC(=O)[C@H](C)[C@@H](O[C@H]2C[C@@](C)(OC)[C@@H](O)[C@H](C)O2)[C@H](C)[C@@H](O[C@@H]2O[C@H](C)C[C@H](N(C)C(C)C)[C@H]2O)[C@](C)(O)C[C@@H](C)[C@H](OCC(=O)O)[C@H](C)[C@@H](O)[C@]1(C)O [Compound A-56]	150	128 (≈ 156 µM)
CC[C@H]1OC(=O)[C@H](C)[C@@H](O[C@H]2C[C@@](C)(OC)[C@@H](O)[C@H](C)O2)[C@H](C)[C@@H](O[C@@H]2O[C@H](C)C[C@H](N(C)C(C)C)[C@H]2O)[C@](C)(O)C[C@@H](C)[C@H](OCC#N)[C@H](C)[C@@H](O)[C@]1(C)O [Compound A-7]	210	> 128
CC[C@H]1OC(=O)[C@H](C)[C@@H](O[C@H]2C[C@@](C)(OC)[C@@H](O)[C@H](C)O2)[C@H](C)[C@@H](O[C@@H]2O[C@H](C)C[C@H](N(C)CC(C)C)[C@H]2O)[C@](C)(O)C[C@@H](C)[C@H](NS(C)(=O)=O)[C@H](C)[C@@H](O)[C@]1(C)O [Compound A-38]	140	128 (≈ 150 µM)
CC[C@H]1OC(=O)[C@H](C)[C@@H](O[C@H]2C[C@@](C)(OC)[C@@H](O)[C@H](C)O2)[C@H](C)[C@@H](O[C@@H]2O[C@H](C)C[C@H](N(C)C3CCC3)[C@H]2O)[C@](C)(O)C[C@@H](C)[C@H](NS(=O)(=O)C2CC2)[C@H](C)[C@@H](O)[C@]1(C)O [Compound A-42]	340	> 128
CC[C@H]1OC(=O)[C@H](C)[C@@H](O[C@H]2C[C@@](C)(OC)[C@@H](O)[C@H](C)O2)[C@H](C)[C@@H](O[C@@H]2O[C@H](C)C[C@H](N(C)C(C)C)[C@H]2O)[C@](C)(O)C[C@@H](C)[C@H](OCCNC(=O)OC)[C@H](C)[C@@H](O)[C@]1(C)O [Compound A-65]	130	128 (≈ 148 µM)
CC[C@H]1OC(=O)[C@H](C)[C@@H](O[C@H]2C[C@@](C)(OC)[C@@H](O)[C@H](C)O2)[C@H](C)[C@@H](O[C@@H]2O[C@H](C)C[C@H](N(C)C(C)C)[C@H]2O)[C@](C)(O)C[C@@H](C)[C@H](OCC(=O)OC)[C@H](C)[C@@H](O)[C@]1(C)O [Compound A-22]	140	128 (≈ 153 µM)
CC[C@H]1OC(=O)[C@H](C)[C@@H](O[C@H]2C[C@@](C)(OC)[C@@H](O)[C@H](C)O2)[C@H](C)[C@@H](O[C@@H]2O[C@H](C)C[C@H](N(C)C(C)C)[C@H]2O)[C@](C)(O)C[C@@H](C)[C@H](OC(=O)N(C)C)[C@H](C)[C@@H](O)[C@]1(C)O [Compound A-18]	310	128 (≈ 153 µM)
CCOC(=O)CO[C@@H]1[C@H](C)[C@@H](O)[C@](C)(O)[C@@H](CC)OC(=O)[C@H](C)[C@@H](O[C@H]2C[C@@](C)(OC)[C@@H](O)[C@H](C)O2)[C@H](C)[C@@H](O[C@@H]2O[C@H](C)C[C@H](N(C)C[C@H](C)O)[C@H]2O)[C@](C)(O)C[C@H]1C [Compound A-9]	430	> 128

Compounds with a lower EC50 (Motilin Receptor), results first:

EC50 (Motilin Receptor) [nM]	MIC [1] [µg/mL]	SMILES
17	128 (≈ 156 µM)	CC[C@H]1OC(=O)[C@H](C)[C@@H](O[C@H]2C[C@@](C)(OC)C[C@H](C)O2)[C@H](C)[C@@H](O[C@@H]2O[C@H](C)C[C@H](N(C)C(C)C)[C@H]2O)[C@](C)(O)C[C@@H](C)[C@H](OCC(=O)NC)[C@H](C)[C@@H](O)[C@]1(C)O [Compound A-61]
25	> 128	CC[C@H]1OC(=O)[C@H](C)[C@@H](O[C@H]2C[C@@](C)(OC)[C@@H](O)[C@H](C)O2)[C@H](C)[C@@H](O[C@@H]2O[C@H](C)C[C@H](N(C)C(C)C)[C@H]2O)[C@](C)(O)C[C@@H](C)[C@H](OCC(=O)Nc2ccncn2)[C@H](C)[C@@H](O)[C@]1(C)O [Compound A-77]
79	128 (≈ 140 µM)	CC[C@H]1OC(=O)[C@H](C)[C@@H](O[C@H]2C[C@@](C)(OC)[C@@H](O)[C@H](C)O2)[C@H](C)[C@@H](O[C@@H]2O[C@H](C)C[C@H](N(C)C(C)C)[C@H]2O)[C@](C)(O)C[C@@H](C)[C@H](OCC(=O)NCc2ccccc2)[C@H](C)[C@@H](O)[C@]1(C)O [Compound A-59]
120	> 128	CC[C@H]1OC(=O)[C@H](C)[C@@H](O[C@H]2C[C@@](C)(OC)[C@@H](O)[C@H](C)O2)[C@H](C)[C@@H](O[C@@H]2O[C@H](C)C[C@H](N(C)C(C)C)[C@H]2O)[C@](C)(O)C[C@@H](C)[C@H](OCC(=O)NC2CCOCC2)[C@H](C)[C@@H](O)[C@]1(C)O [Compound A-33]
66	32 (≈ 38 µM)	CC[C@H]1OC(=O)[C@H](C)[C@@H](O[C@H]2C[C@@](C)(OC)[C@@H](O)[C@H](C)O2)[C@H](C)[C@@H](O[C@@H]2O[C@H](C)C[C@H](N(C)CCO)[C@H]2O)[C@](C)(O)C[C@@H](C)[C@H](NS(C)(=O)=O)[C@H](C)[C@@H](O)[C@]1(C)O [Compound A-36]
48	> 128	CC[C@H]1OC(=O)[C@H](C)[C@@H](O[C@H]2C[C@@](C)(OC)[C@@H](O)[C@H](C)O2)[C@H](C)[C@@H](O[C@@H]2O[C@H](C)C[C@H](N(C)C(C)C)[C@H]2O)[C@](C)(O)C[C@@H](C)[C@H](OCCNC(C)=O)[C@H](C)[C@@H](O)[C@]1(C)O [Compound A-30]
37	128 (≈ 135 µM)	CC[C@H]1OC(=O)[C@H](C)[C@@H](O[C@H]2C[C@@](C)(OC)[C@@H](O)[C@H](C)O2)[C@H](C)[C@@H](O[C@@H]2O[C@H](C)C[C@H](N(C)C(C)C)[C@H]2O)[C@](C)(O)C[C@@H](C)[C@H](OCCNC(=O)c2ccc3[nH]cnc3c2)[C@H](C)[C@@H](O)[C@]1(C)O [Compound A-58]
